ChEMBL document CHEMBL5696443 (Clin Cancer Res, 2016)
pIC50: −log10 of the molar value. The source made the active and inactive calls. The calls are words filed in the database; no cut-off is given here.

Experiments:
[1] = target: Tyrosine-protein kinase Blk (Homo sapiens, UniProt P51451); test: Inhibition of human BLK using poly (Glu, Tyr)4:1 as substrate in presence of [gamma33P]-ATP by HotSpot assay
[2] = target: BDNF/NT-3 growth factors receptor (Homo sapiens, UniProt Q16620); test: Inhibition of human NTRK2 using poly (Glu, Tyr)4:1 as substrate in presence of [gamma33P]-ATP by HotSpot assay
[3] = target: RAC-beta serine/threonine-protein kinase (Homo sapiens) (UniProt P31751); test: Inhibition of human AKT2 at 1 uM using KGSGSGRPRTSSFAEG as substrate in presence of [gamma33P]-ATP by HotSpot assay relative to control
[4] = target: Dual specificity tyrosine-phosphorylation-regulated kinase 1A (Homo sapiens) (UniProt Q13627); test: Inhibition of human DYRK1A at 1 uM using RRRFRPASPLRGPPK as substrate in presence of [gamma33P]-ATP by HotSpot assay relative to control
[5] = target: G protein-coupled receptor kinase 4 (Homo sapiens) (UniProt P32298); test: Inhibition of human GRK4 at 1 uM using casein as substrate in presence of [gamma33P]-ATP by HotSpot assay relative to control
[6] = target: Rhodopsin kinase GRK7 (Homo sapiens) (UniProt Q8WTQ7); test: Inhibition of human GRK7 at 1 uM using casein as substrate in presence of [gamma33P]-ATP by HotSpot assay relative to control
Sequence of Rhodopsin kinase GRK7 (Homo sapiens) (Q8WTQ7 whole entry): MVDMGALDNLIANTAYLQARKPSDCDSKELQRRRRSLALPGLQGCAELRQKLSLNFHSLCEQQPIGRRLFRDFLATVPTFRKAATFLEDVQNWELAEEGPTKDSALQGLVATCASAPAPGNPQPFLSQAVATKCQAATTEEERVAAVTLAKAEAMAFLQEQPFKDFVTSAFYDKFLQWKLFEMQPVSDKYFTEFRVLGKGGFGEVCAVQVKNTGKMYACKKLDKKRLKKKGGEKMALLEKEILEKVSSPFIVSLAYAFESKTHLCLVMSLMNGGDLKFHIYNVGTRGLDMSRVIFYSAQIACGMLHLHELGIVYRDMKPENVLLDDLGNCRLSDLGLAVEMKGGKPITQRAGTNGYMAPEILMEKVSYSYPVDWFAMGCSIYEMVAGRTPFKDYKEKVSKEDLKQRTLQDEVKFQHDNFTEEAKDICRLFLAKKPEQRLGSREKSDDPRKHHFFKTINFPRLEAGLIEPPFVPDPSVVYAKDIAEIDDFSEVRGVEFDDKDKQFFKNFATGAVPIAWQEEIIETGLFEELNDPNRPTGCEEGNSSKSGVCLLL

[7] = target: Tyrosine-protein kinase JAK1 (Homo sapiens) (UniProt P23458); test: Inhibition of human JAK1 at 1 uM using MBP as substrate in presence of [gamma33P]-ATP by HotSpot assay relative to control
[8] = target: Tyrosine-protein kinase JAK3 (Homo sapiens) (UniProt P52333); test: Inhibition of human JAK3 at 1 uM using MBP as substrate in presence of [gamma33P]-ATP by HotSpot assay relative to control
[9] = target: Mitogen-activated protein kinase kinase kinase 5 (Homo sapiens) (UniProt Q99683); test: Inhibition of human MAP3K5 at 1 uM using MBP as substrate in presence of [gamma33P]-ATP by HotSpot assay relative to control
[10] = target: Mitogen-activated protein kinase 1 (Homo sapiens) (UniProt P28482); test: Inhibition of human MAPK1 at 1 uM using MBP as substrate in presence of [gamma33P]-ATP by HotSpot assay relative to control
[11] = target: Mitogen-activated protein kinase 10 (Homo sapiens) (UniProt P53779); test: Inhibition of human MAPK10 at 1 uM using ATF2 as substrate in presence of [gamma33P]-ATP by HotSpot assay relative to control
Sequence of Mitogen-activated protein kinase 10 (Homo sapiens) (P53779 whole entry): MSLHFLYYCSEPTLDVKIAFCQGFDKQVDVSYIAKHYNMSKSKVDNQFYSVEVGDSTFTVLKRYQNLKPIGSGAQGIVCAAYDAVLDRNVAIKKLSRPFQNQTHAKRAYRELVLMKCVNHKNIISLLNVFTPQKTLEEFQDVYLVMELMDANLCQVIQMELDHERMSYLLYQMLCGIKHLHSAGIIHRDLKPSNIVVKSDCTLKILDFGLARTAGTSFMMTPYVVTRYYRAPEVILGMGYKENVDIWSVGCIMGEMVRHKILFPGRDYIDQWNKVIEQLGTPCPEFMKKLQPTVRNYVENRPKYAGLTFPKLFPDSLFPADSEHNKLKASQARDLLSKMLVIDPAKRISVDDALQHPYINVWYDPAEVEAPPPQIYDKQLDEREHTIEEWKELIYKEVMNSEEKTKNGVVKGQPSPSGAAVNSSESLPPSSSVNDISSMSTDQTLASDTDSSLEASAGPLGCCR

[12] = target: Serine/threonine-protein kinase Nek11 (Homo sapiens) (UniProt Q8NG66); test: Inhibition of human NEK11 at 1 uM using MBP as substrate in presence of [gamma33P]-ATP by HotSpot assay relative to control
[13] = target: Serine/threonine-protein kinase Nek2 (Homo sapiens) (UniProt P51955); test: Inhibition of human NEK2 at 1 uM using MBP substrate in presence of [gamma33P]-ATP by HotSpot assay relative to control
[14] = target: Serine/threonine-protein kinase Nek6 (Homo sapiens) (UniProt Q9HC98); test: Inhibition of human NEK6 at 1 uM using casein as substrate in presence of [gamma33P]-ATP by HotSpot assay relative to control
Sequence of Serine/threonine-protein kinase Nek6 (Homo sapiens) (Q9HC98 whole entry): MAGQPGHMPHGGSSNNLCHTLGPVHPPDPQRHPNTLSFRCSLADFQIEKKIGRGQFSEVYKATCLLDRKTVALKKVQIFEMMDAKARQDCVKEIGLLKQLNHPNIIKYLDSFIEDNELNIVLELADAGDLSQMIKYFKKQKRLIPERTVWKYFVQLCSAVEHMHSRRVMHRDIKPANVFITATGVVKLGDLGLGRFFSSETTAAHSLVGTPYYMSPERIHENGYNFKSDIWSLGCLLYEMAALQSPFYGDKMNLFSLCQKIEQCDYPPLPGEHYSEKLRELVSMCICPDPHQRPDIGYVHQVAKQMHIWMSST

[15] = system: Platelet-derived growth factor receptor alpha (Homo sapiens), P16234 [T674I]; test: Inhibition of human PDGFRalpha T674I mutant at 1 uM using poly (Glu, Tyr)4:1 as substrate in presence of [gamma33P]-ATP by HotSpot assay relative to control
[16] = target: Ribosomal protein S6 kinase alpha-5 (Homo sapiens) (UniProt O75582); test: Inhibition of human RPS6KA5 at 1 uM using GRPRTSSFAEG as substrate in presence of [gamma33P]-ATP by HotSpot assay relative to control
Sequence of Ribosomal protein S6 kinase alpha-5 (Homo sapiens) (O75582 whole entry, looked up): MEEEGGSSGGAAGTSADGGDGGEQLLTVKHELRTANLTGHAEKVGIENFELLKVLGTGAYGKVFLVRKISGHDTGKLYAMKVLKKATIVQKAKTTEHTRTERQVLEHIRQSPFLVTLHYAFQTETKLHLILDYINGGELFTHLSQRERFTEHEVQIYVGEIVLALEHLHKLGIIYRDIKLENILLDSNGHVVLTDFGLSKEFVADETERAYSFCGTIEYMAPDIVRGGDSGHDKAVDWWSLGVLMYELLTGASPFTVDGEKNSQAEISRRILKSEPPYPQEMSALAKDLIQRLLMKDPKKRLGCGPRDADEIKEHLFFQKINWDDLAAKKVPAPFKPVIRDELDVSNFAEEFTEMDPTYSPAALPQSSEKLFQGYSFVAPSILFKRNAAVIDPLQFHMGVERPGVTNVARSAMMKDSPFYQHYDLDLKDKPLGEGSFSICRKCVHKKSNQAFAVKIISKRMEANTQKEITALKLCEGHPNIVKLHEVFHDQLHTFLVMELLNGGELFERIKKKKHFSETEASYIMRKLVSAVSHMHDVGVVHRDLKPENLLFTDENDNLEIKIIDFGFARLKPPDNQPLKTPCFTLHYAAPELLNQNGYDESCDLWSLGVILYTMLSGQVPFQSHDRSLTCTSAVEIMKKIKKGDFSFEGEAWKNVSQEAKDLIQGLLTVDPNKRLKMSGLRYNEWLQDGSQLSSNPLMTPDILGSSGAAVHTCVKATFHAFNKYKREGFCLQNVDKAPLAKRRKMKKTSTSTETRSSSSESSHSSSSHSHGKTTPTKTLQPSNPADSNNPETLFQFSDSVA

[17] = target: Serine/threonine-protein kinase Sgk2 (Homo sapiens) (UniProt Q9HBY8); test: Inhibition of human SGK2 at 1 uM using KGSGSGRPRTSSFAEG as substrate in presence of [gamma33P]-ATP by HotSpot assay relative to control
[18] = target: Serine/threonine-protein kinase 3 (Homo sapiens) (UniProt Q13188); test: Inhibition of human STK3 at 1 uM using MBP as substrate in presence of [gamma33P]-ATP by HotSpot assay relative to control
Mus musculus = test: In vivo inhibition of ALK signaling in SCID Beige mouse xenografted with ALK positive human KARPAS-299 cells assessed as reduction in phosphorylated ERK1/2 level at 10 to 50 mg/kg, po administered as single dose and measured at 6 to 24 hrs by immunoblot analysis; type: functional, organism-based; details: dose 10-50 mg/kg, time 6-24 hrs
NCI-H2228 = test: Antitumor activity against ALK positive human NCI-H2228 cells xenografted in SCID beige mouse assessed as tumor regression at 10 to 50 mg/kg, po administered once daily for 21 days and measured 28 days after treatment; type: functional, organism-based; details: dose 10-50 mg/kg, time 28.0 day
BaF3 = test: In vivo inhibition of ALK signaling in mouse implanted with mouse BaF3 cells expressing EML4-ALK L1196M mutant assessed as inhibition of ALK phosphorylation at 25 mg/kg, po administered as single dose and measured at 6 to 24 hrs by ELISA; type: functional, organism-based; details: time 6-24 hrs
NCI-H838 = details: time 72 hrs
[19] = system: Epidermal growth factor receptor (Homo sapiens), P00533 [L858R,T790M]; details: BaF3, time 72.0 hrs
[20] = system: EML4-ALK (Homo sapiens), Q9UM73+Q9HC35 [UNDEFINED MUTATION]; details: BaF3, time 3-5 weeks
Sequence of EML4-ALK (Homo sapiens), Q9UM73+Q9HC35 [UNDEFINED MUTATION] (Q9HC35 whole entry, looked up, stated change not applied): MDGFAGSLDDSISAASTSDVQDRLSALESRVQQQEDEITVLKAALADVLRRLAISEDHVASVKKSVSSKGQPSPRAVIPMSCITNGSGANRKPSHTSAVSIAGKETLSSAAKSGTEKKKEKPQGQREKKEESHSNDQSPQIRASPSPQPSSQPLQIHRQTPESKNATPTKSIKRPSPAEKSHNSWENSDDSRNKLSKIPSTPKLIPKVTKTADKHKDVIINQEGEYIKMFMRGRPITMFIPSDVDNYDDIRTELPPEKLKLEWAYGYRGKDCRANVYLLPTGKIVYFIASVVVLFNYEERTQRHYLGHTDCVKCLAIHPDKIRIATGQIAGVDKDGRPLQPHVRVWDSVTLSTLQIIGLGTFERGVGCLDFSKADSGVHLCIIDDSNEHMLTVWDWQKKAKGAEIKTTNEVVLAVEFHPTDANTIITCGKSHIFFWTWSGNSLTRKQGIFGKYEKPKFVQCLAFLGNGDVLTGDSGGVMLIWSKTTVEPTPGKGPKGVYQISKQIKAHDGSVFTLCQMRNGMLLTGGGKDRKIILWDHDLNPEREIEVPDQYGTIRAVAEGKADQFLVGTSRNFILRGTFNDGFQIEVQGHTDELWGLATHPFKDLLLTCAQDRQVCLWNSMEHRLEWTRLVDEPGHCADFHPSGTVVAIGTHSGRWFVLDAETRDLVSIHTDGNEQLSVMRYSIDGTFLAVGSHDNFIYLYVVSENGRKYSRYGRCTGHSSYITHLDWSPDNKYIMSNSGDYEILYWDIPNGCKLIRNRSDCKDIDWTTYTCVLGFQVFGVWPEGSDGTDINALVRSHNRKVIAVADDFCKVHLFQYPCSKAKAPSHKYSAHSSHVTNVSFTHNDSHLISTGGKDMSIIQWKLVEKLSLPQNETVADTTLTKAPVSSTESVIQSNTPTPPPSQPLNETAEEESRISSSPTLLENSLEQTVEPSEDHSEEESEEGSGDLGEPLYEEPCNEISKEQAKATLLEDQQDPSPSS
Sequence of EML4-ALK (Homo sapiens), Q9UM73+Q9HC35 [UNDEFINED MUTATION] (Q9UM73 whole entry, looked up, stated change not applied): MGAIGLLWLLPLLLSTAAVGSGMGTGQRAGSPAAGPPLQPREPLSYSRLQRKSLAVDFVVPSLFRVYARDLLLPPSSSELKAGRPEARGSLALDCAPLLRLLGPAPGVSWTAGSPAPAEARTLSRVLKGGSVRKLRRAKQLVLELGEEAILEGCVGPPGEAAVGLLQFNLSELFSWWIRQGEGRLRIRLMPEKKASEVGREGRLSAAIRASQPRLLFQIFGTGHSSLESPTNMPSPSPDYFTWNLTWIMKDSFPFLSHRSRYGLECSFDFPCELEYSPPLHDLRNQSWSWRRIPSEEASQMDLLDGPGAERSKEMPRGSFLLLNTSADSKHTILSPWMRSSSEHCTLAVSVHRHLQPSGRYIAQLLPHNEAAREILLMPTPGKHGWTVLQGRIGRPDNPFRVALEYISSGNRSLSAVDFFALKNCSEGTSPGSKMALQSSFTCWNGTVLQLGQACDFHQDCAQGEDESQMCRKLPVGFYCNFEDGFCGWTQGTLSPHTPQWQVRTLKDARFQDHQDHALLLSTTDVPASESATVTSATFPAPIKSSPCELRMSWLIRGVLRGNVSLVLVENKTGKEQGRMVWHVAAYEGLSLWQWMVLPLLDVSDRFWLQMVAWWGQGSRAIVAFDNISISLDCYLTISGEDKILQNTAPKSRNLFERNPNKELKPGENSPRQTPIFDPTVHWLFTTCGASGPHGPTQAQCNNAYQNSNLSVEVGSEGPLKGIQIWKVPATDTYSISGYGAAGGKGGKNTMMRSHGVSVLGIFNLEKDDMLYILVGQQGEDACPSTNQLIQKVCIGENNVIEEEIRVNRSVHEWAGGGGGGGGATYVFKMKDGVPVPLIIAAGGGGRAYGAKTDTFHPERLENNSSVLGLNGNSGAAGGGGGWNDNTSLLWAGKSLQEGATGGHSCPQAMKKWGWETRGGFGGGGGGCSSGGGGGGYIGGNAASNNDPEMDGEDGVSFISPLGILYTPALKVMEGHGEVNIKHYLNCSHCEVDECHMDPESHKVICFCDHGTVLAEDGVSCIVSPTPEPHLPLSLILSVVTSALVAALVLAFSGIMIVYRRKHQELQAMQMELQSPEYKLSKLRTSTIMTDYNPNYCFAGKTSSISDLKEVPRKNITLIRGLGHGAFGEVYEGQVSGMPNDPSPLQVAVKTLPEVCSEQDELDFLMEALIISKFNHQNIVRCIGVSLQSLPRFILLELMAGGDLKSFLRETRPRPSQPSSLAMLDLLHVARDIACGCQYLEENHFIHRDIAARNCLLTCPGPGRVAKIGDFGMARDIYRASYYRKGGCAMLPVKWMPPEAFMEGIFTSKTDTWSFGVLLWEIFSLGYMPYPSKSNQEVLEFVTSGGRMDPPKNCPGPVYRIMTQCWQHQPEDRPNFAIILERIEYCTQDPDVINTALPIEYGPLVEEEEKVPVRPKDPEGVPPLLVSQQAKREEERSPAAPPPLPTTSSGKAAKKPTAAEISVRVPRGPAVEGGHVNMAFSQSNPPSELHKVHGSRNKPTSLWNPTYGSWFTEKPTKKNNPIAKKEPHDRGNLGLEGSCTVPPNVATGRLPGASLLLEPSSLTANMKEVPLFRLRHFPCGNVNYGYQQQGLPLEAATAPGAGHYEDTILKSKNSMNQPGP

[21] = system: EML4-ALK (Homo sapiens), Q9UM73+Q9HC35 [C1156Y]; details: BaF3, time 3-5 weeks
Sequence of EML4-ALK (Homo sapiens), Q9UM73+Q9HC35 [C1156Y] (Q9UM73 whole entry C1156Y): as the sequence (Q9UM73 whole entry, looked up, stated change not applied) above, with C1156Y counted along it
Sequence of EML4-ALK (Homo sapiens), Q9UM73+Q9HC35 [C1156Y] (Q9HC35 whole entry partner): as the sequence (Q9HC35 whole entry, looked up, stated change not applied) above

[22] = system: EML4-ALK (Homo sapiens), Q9UM73+Q9HC35 [F1174C]; details: BaF3, time 3-5 weeks
[23] = system: EML4-ALK (Homo sapiens), Q9UM73+Q9HC35 [L1198F]; details: BaF3, time 3-5 weeks
[24] = system: EML4-ALK (Homo sapiens), Q9UM73+Q9HC35 [L1152P]; details: BaF3, dose 500.0 nmol/L, time 3-5 weeks
[25] = system: EML4-ALK (Homo sapiens), Q9UM73+Q9HC35 [V1180L]; details: BaF3, dose 500.0 nmol/L, time 3-5 weeks

COc1cc(N2CCC(N3CCN(C)CC3)CC2)ccc1Nc1ncc(Cl)c(Nc2ccccc2P(C)(C)=O)n1 [BRIGATINIB]
pIC50 [1]: 6.87
pIC50 [2]: < 6.00
inhibition [3]: < 90%
inhibition [4]: < 90%
inhibition [5]: < 90%
inhibition [6]: < 90%
inhibition [7]: < 90%
inhibition [8]: < 90%
inhibition [9]: < 90%
inhibition [10]: < 90%
inhibition [11]: < 90%
inhibition [12]: < 90%
inhibition [13]: < 90%
inhibition [14]: < 90%
inhibition [15]: < 90%
inhibition [16]: < 90%
inhibition [17]: < 90%
inhibition [18]: < 90%
Activity (Mus musculus): Active
Activity (NCI-H2228): Active
inhibition (BaF3): Active
GI50 (NCI-H838): 503 nM
IC90 [19]: 2970 nM
IC90 [20]: 416 nM
IC90 [21]: 129 nM
IC90 [22]: 160 nM
IC90 [23]: 242 nM
inhibition [24]: Active
inhibition [25]: Active
